{
  "source": "patent US12350266B2",
  "about": "“FGFR2 inhibitors for the treatment of cholangiocarcinoma” (Janssen Pharmaceutica NV, priority 2017, dated 2025)",
  "key": {"[1]": {"test_system": "advanced cholangiocarcinoma patients", "experiment": "LUC2001 (NCT02699606) phase 2a study: safety (adverse events)", "experimental": "(§1) LUC2001 is an open-label, multicenter, phase 2a study including advanced cholangiocarcinoma subjects with FGFR alterations, based on FoundationOne testing, who failed at least 1 prior systemic treatment. The primary endpoint is objective response rate (ORR; by Response Evaluation Criteria in Solid Tumors (RECIST) version 1.1). The secondary endpoints are disease control rate (DCR), safety and pharmacokinetics. Disease is evaluated every 8 weeks until disease progression (PD). […] The dose of the drug may be modified, delayed, or terminated based on guidelines in the protocol."}, "[2]": {"test_system": "advanced cholangiocarcinoma with FGFR alterations", "conditions": "11 subjects dosed with 8 mg qd; snapshot 20 Mar. 2018", "experimental": "as §1"}, "[3]": {"conditions": "compared with published Part 1 results (Tabernero 2015)"}, "[4]": {"test_system": "patients with FGFR-aberrant cholangiocarcinoma", "experiment": "Clinical trial NCT01703481: safety", "assay_type": "in vivo, human", "conditions": "compared with published Part 1 results (Tabernero 2015)", "method": "Eleven patients with FGFR-aberrant cholangiocarcinoma were treated at 9 mg QD (n=1, Part 3) or 10 mg intermittent (n=10, Part 4)."}, "[5]": {"test_system": "FGFR-aberrant cholangiocarcinoma", "text": "Sparse samples were collected in Parts 3 and 4."}, "[6]": {"conditions": "8 mg qd, most common AEs (>30%)"}},
  "data": [
    {"smiles": "COc1cc(OC)cc(N(CCNC(C)C)c2ccc3ncc(-c4cnn(C)c4)nc3c2)c1", "note": "[erdafitinib, N-(3,5-dimethoxy-phenyl)-N′-(1-methylethyl)-N-[3-(1-methyl-1H-pyrazol-4-yl)quinoxalin-6-yl]ethane-1,2-diamine]", "values": [
      {"measurement": "AE diarrhea (subjects/dosed)", "setting": "[1]; [6]", "result": "4/11"},
      {"measurement": "AE dry mouth (subjects/dosed)", "setting": "[1]; [6]", "result": "7/11"},
      {"measurement": "AE hyperphosphatemia (subjects/dosed)", "setting": "[1]; [6]", "result": "8/11"},
      {"measurement": "AE nail disorder (subjects/dosed)", "setting": "[1]; [6]", "result": "4/11"},
      {"measurement": "AE palmar-plantar erythrodysaesthesia syndrome (subjects/dosed)", "setting": "[1]; [6]", "result": "4/11"},
      {"measurement": "AE stomatitis (subjects/dosed)", "setting": "[1]; [6]", "result": "7/11"},
      {"measurement": "AE leading to treatment discontinuation or death", "setting": "[1]; 11 subjects, 8 mg qd", "result": "no AE led to treatment discontinuation or death"},
      {"measurement": "subjects who experienced AEs", "setting": "[1]; 11 subjects, 8 mg qd", "result": "All subjects experienced AEs"},
      {"measurement": "subjects with AEs leading to drug interruption", "setting": "[1]; 11 subjects, 8 mg qd", "result": "all had AEs leading to drug interruption"},
      {"measurement": "safety profile (conclusion)", "setting": "[1]; patients with FGFR-aberrant advanced cholangiocarcinoma", "result": "tolerable safety profile"},
      {"measurement": "PD (disease progression), number of subjects", "setting": "[2]", "result": 2},
      {"measurement": "PK data", "setting": "[3]", "result": "consistent with those from the previously published results from Part 1 of this study"},
      {"measurement": "Safety data", "setting": "[4]", "result": "consistent with those from the previously published results from Part 1 of this study"},
      {"measurement": "partial responses, fusion FGFR2-BICC1", "setting": "[5]; number of patients (n)", "result": 1},
      {"measurement": "partial responses, fusion FGFR2-CCAR1", "setting": "[5]; number of patients (n)", "result": 1},
      {"measurement": "partial responses, patients with FGFR translocations", "setting": "[5]; number of patients among the 3 partial responses", "result": 2}
    ]}
  ]
}
